Results published in PubChem BioAssay (NCI).
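Cultured in 96-well plates, cells were exposed to test compound for 48 hours across five concentrations. TGI: concentration producing complete growth inhibition.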

Columns and labels:
Experiment in all cases: NCI-60 cell line screen, 48 h
[1] = system: COLO 205 colon
[2] = system: SNB-78 CNS
[3] = system: SF-268 CNS
[4] = system: A498 renal
[5] = system: HL-60(TB) leukemia
[6] = system: SR leukemia
[7] = system: UACC-257 melanoma
[8] = system: DLD-1 colon
[9] = system: SF-539 CNS
[10] = system: SK-MEL-5 melanoma
[11] = system: NCI-H522 lung
[12] = system: SNB-75 CNS
[13] = system: KM12 colon
[14] = system: SF-295 CNS
[15] = system: 786-0 renal
[16] = system: RXF 393 renal
[17] = system: HCT-116 colon
[18] = system: CCRF-CEM leukemia
[19] = system: K-562 leukemia
[20] = system: NCI-H23 lung
[21] = system: SNB-19 CNS
[22] = system: U251 CNS
[23] = system: M14 melanoma
[24] = system: HOP-92 NSCLC
[25] = system: OVCAR-4 ovarian
[26] = system: SK-MEL-28 melanoma
[27] = system: SK-OV-3 ovarian
[28] = system: CAKI-1 renal
[29] = system: SW-620 colon
[30] = system: LOX IMVI melanoma
[31] = system: EKVX NSCLC
[32] = system: MOLT-4 leukemia
[33] = system: MALME-3M melanoma
[34] = system: HT29 colon
[35] = system: UO-31 renal
[36] = system: A549 NSCLC
[37] = system: NCI-H460 lung
[38] = system: DMS 114 small cell lung
[39] = system: UACC-62 melanoma
[40] = system: OVCAR-8 ovarian
[41] = system: LXFL 529 NSCLC
[42] = system: KM20L2 colon
[43] = system: SN12C renal
[44] = system: TK-10 renal
[45] = system: ACHN renal
[46] = system: M19-MEL melanoma
[47] = system: XF 498 CNS
[48] = system: RXF-631 renal
[49] = system: OVCAR-3 ovarian
[50] = system: NCI-H226 lung
[51] = system: IGROV1 ovarian
[52] = system: HOP-62 NSCLC
[53] = system: HCC-2998 colon
[54] = system: OVCAR-5 ovarian
[55] = system: SK-MEL-2 melanoma
[56] = system: HCT-15 colon
[57] = system: DMS 273 small cell lung
[58] = system: RPMI-8226 leukemia

## CC1CC[C@@]23CCC4(C)[C@@](C=CC5[C@@]6(C)CCC(=O)C(C)(C)C6CC[C@]54C)(OC2=O)[C@@H]3[C@H]1C (stereo partly specified)
[1]
  TGI: 27.7 µM
[2]
  TGI: 67.9 µM
[3]
  TGI: > 100 µM
[4]
  TGI: 62.5 µM
[5]
  TGI: 13.3 µM
[6]
  TGI: 26.5 µM
[7]
  TGI: 52.8 µM
[8]
  TGI: > 100 µM
[9]
  TGI: 86.3 µM
[10]
  TGI: 28.5 µM
[11]
  TGI: 37.9 µM
[12]
  TGI: 55 µM
[13]
  TGI: 36.8 µM
[14]
  TGI: 73.2 µM
[15]
  TGI: > 100 µM
[16]
  TGI: 41.2 µM
[17]
  TGI: 22.7 µM
[18]
  TGI: 53.4 µM
[19]
  TGI: > 100 µM
[20]
  TGI: 42 µM
[21]
  TGI: > 100 µM
[22]
  TGI: 52.9 µM
[23]
  TGI: > 100 µM
[24]
  TGI: 41.7 µM
[25]
  TGI: > 100 µM
[26]
  TGI: > 100 µM
[27]
  TGI: 80 µM
[28]
  TGI: > 100 µM
[29]
  TGI: > 100 µM
[30]
  TGI: 36.3 µM
[31]
  TGI: 82.9 µM
[32]
  TGI: 27.8 µM
[33]
  TGI: 52 µM
[34]
  TGI: 51.3 µM
[35]
  TGI: 40.2 µM
[36]
  TGI: 81 µM
[37]
  TGI: 58 µM
[38]
  TGI: 34.1 µM
[39]
  TGI: > 100 µM
[40]
  TGI: > 100 µM
[41]
  TGI: 74.7 µM
[42]
  TGI: > 100 µM
[43]
  TGI: > 100 µM
[44]
  TGI: 56.5 µM
[45]
  TGI: 78.2 µM
[46]
  TGI: 68.5 µM
[47]
  TGI: 34.2 µM
[48]
  TGI: 71.4 µM
[49]
  TGI: 39.3 µM
[50]
  TGI: 58.9 µM
[51]
  TGI: > 100 µM
[52]
  TGI: 42.6 µM

## COc1cc(/C=C(\NC(=O)c2ccccc2)c2nc3[nH]c(=S)[nH]c(=O)c3[nH]2)cc(OC)c1OC
[1]
  TGI: > 100 µM
[2]
  TGI: > 100 µM
[3]
  TGI: > 100 µM
[5]
  TGI: > 100 µM
[6]
  TGI: > 100 µM
[8]
  TGI: > 100 µM
[9]
  TGI: > 100 µM
[10]
  TGI: > 100 µM
[11]
  TGI: > 100 µM
[13]
  TGI: > 100 µM
[14]
  TGI: > 100 µM
[15]
  TGI: > 100 µM
[16]
  TGI: > 100 µM
[18]
  TGI: > 100 µM
[19]
  TGI: > 100 µM
[20]
  TGI: > 100 µM
[21]
  TGI: > 100 µM
[22]
  TGI: > 100 µM
[23]
  TGI: > 100 µM
[24]
  TGI: > 100 µM
[25]
  TGI: > 100 µM
[26]
  TGI: > 100 µM
[53]
  TGI: > 100 µM
[54]
  TGI: > 100 µM
[27]
  TGI: > 100 µM
[28]
  TGI: > 100 µM
[29]
  TGI: > 100 µM
[31]
  TGI: > 100 µM
[32]
  TGI: > 100 µM
[33]
  TGI: > 100 µM
[34]
  TGI: > 100 µM
[35]
  TGI: > 100 µM
[36]
  TGI: > 100 µM
[38]
  TGI: > 100 µM
[39]
  TGI: > 100 µM
[40]
  TGI: > 100 µM
[55]
  TGI: > 100 µM
[41]
  TGI: > 100 µM
[42]
  TGI: > 100 µM
[43]
  TGI: > 100 µM
[44]
  TGI: > 100 µM
[45]
  TGI: > 100 µM
[46]
  TGI: > 100 µM
[47]
  TGI: > 100 µM
[48]
  TGI: > 100 µM
[49]
  TGI: > 100 µM
[51]
  TGI: > 100 µM
[56]
  TGI: > 100 µM

## CN=c1ssc(/N=C(\SC)N(C)C)[n+]1C
[2]
  TGI: > 100 µM
[3]
  TGI: > 100 µM
[5]
  TGI: > 100 µM
[6]
  TGI: > 100 µM
[7]
  TGI: > 100 µM
[10]
  TGI: > 100 µM
[11]
  TGI: > 100 µM
[13]
  TGI: > 100 µM
[14]
  TGI: > 100 µM
[15]
  TGI: > 100 µM
[16]
  TGI: > 100 µM
[17]
  TGI: > 100 µM
[18]
  TGI: > 100 µM
[19]
  TGI: > 100 µM
[20]
  TGI: > 100 µM
[21]
  TGI: > 100 µM
[22]
  TGI: > 100 µM
[23]
  TGI: > 100 µM
[24]
  TGI: > 100 µM
[26]
  TGI: > 100 µM
[53]
  TGI: > 100 µM
[54]
  TGI: > 100 µM
[27]
  TGI: > 100 µM
[28]
  TGI: > 100 µM
[29]
  TGI: > 100 µM
[30]
  TGI: > 100 µM
[31]
  TGI: > 100 µM
[32]
  TGI: > 100 µM
[34]
  TGI: > 100 µM
[35]
  TGI: > 100 µM
[36]
  TGI: > 100 µM
[37]
  TGI: > 100 µM
[57]
  TGI: > 100 µM
[39]
  TGI: > 100 µM
[40]
  TGI: > 100 µM
[55]
  TGI: > 100 µM
[41]
  TGI: > 100 µM
[43]
  TGI: > 100 µM
[44]
  TGI: > 100 µM
[45]
  TGI: > 100 µM
[47]
  TGI: > 100 µM
[48]
  TGI: > 100 µM
[50]
  TGI: > 100 µM
[51]
  TGI: > 100 µM
[56]
  TGI: > 100 µM
[52]
  TGI: > 100 µM

## O=C(Cc1cc[n+]([O-])cc1)C(=O)Nc1cc(Cl)c(Cl)cc1Cl
[1]
  TGI: > 100 µM
[2]
  TGI: > 100 µM
[3]
  TGI: > 100 µM
[4]
  TGI: > 100 µM
[5]
  TGI: > 100 µM
[7]
  TGI: > 100 µM
[8]
  TGI: > 100 µM
[9]
  TGI: > 100 µM
[10]
  TGI: > 100 µM
[11]
  TGI: > 100 µM
[12]
  TGI: > 100 µM
[13]
  TGI: > 100 µM
[14]
  TGI: > 100 µM
[58]
  TGI: > 100 µM
[15]
  TGI: > 100 µM
[16]
  TGI: > 100 µM
[17]
  TGI: > 100 µM
[18]
  TGI: > 100 µM
[19]
  TGI: > 100 µM
[20]
  TGI: > 100 µM
[21]
  TGI: > 100 µM
[22]
  TGI: > 100 µM
[23]
  TGI: > 100 µM
[24]
  TGI: > 100 µM
[25]
  TGI: > 100 µM
[26]
  TGI: > 100 µM
[53]
  TGI: > 100 µM
[54]
  TGI: > 100 µM
[27]
  TGI: > 100 µM
[29]
  TGI: > 100 µM
[31]
  TGI: > 100 µM
[32]
  TGI: > 100 µM
[33]
  TGI: > 100 µM
[35]
  TGI: > 100 µM
[36]
  TGI: > 100 µM
[37]
  TGI: > 100 µM
[38]
  TGI: > 100 µM
[39]
  TGI: > 100 µM
[40]
  TGI: > 100 µM
[55]
  TGI: > 100 µM
[41]
  TGI: > 100 µM
[42]
  TGI: > 100 µM
[44]
  TGI: > 100 µM
[45]
  TGI: > 100 µM
[46]
  TGI: > 100 µM
[48]
  TGI: > 100 µM
[49]
  TGI: > 100 µM
[51]
  TGI: > 100 µM
[56]
  TGI: > 100 µM
[52]
  TGI: > 100 µM
